Reference: patent US3966715A, “Herbicidal agents” (Bayer Aktiengesellschaft, priority 1966, dated 1976)

Key:
Type in all cases: in vivo
test plants [1] = assay: Pre-emergence test, overall; conditions: Example 1
Description: (§1) Solvent: 5 parts by weight acetone
(§2) 1 part by weight benzyloxypolyglycol ether
(§3) To produce a suitable preparation of the particular active compound, 1 part by weight of such active compound is mixed with the stated amount of solvent, the stated amount of emulsifier is then added and the resulting concentrate is thereafter diluted with water to the desired final concentration.
(§4) Seeds of the test plants are sown in normal soil and, after 24 hours, watered with the preparation of the given active compound. It is expedient to keep constant the amount of water per unit area. The concentration of the particular active compound in the preparation is of no importance, only the amount of active compound applied per unit area being decisive. After three weeks, the degree of damage to the test plants is determined and characterized by the values 0-5, which have the following meaning:
(§5) The procedure of Example 1 is repeated, and the particular active compounds tested, the amounts applied, and the results obtained can be seen from the following Table 1D: […]

Wheat [2] = assay: Pre-emergence test, wheat; conditions: three weeks
Description: as §1, §2, §3, §4, §5

Oats [3] = assay: Pre-emergence test, oats; conditions: three weeks
Description: as §1, §2, §3, §4, §5

Wheat [4] = assay: Post-emergence test, wheat; conditions: three weeks
Description: as §1, §2, §3
(§6) Test plants which have a height of about 5--15 cm. are sprayed with the preparation of the given active compound until just dew moist. After three weeks, the degree of damage to the plants is determined and characterized by the values 0-5, which have the following meaning:
(§7) The procedure of Example 2 is repeated, and the particular active compounds tested, and amounts applied, and the results obtained can be seen from the following Table 2E: […]

test plants [5] = assay: Post-emergence test, overall; conditions: Example 2
Description: as §1, §2, §3, §6, §7

Chenopodium [6] = assay: Post-emergence test, Chenopodium; conditions: three weeks
Description: as §1, §2, §3, §6, §7

Echinochloa [7] = assay: Pre-emergence test, Echinochloa; conditions: three weeks
Description: as §1, §2, §3, §4, §5

Cotton [8] = assay: Post-emergence test, cotton; conditions: three weeks
Description: as §1, §2, §3, §6, §7

Echinochloa [9] = assay: Post-emergence test, Echinochloa; conditions: three weeks
Description: as §1, §2, §3, §6, §7

Stellaria = assay: Post-emergence test, Stellaria; conditions: three weeks
Description: as §1, §2, §3, §6, §7

Sinapis [10] = assay: Post-emergence test, Sinapis; conditions: 1.2 Kg/hectare, three weeks
Description: as §1, §2, §3, §6, §7

Oats [11] = assay: Post-emergence test, oats; conditions: three weeks
Description: as §1, §2, §3, §6, §7

Chenopodium [12] = assay: Pre-emergence test, Chenopodium; conditions: three weeks
Description: as §1, §2, §3, §4, §5

Cotton [13] = assay: Pre-emergence test, cotton; conditions: three weeks
Description: as §1, §2, §3, §4, §5

plants and weeds = assay: General herbicidal activity; conditions: compared with compound 221
Sinapis [14] = assay: Pre-emergence test, Sinapis; conditions: three weeks
Description: as §1, §2, §3, §4, §5

CSc1nnc(C2CCCCC2)c(=O)n1N [Compound 2, 3-methylthio-4-amino-6-cyclohexyl-1,2,4-triazine-5-one]
kind of herbicidal action (test plants [1]): pronouncedly total-herbicidal action | degree of damage, Wheat (Wheat [2]; 1.25 kg/hectare): 4-5 | degree of damage, Oats (Oats [3]; 1.25 kg/hectare): 4-5

CCSc1nnc(-c2ccccc2)c(=O)n1N [Compound 3, 3-ethylthio-4-amino-6-phenyl-1,2,4-triazine-5-one]
kind of herbicidal action (test plants [1]): selectively herbicidal action in wheat and cotton

CSc1nnc(C(C)C)c(=O)n1N [Compound 21, 3-methylthio-4-amino-6-isopropyl-1,2,4-triazine-5-one]
degree of damage, Wheat (Wheat [4]; 0.01 % active compound): 4-5 | kind of herbicidal action (test plants [5]): pronouncedly total-herbicidal action

C=CCNc1nnc(-c2ccccc2)c(=O)n1N [Compound 26, 3-allylamino-4-amino-6-phenyl-1,2,4-triazine-5-one]
degree of damage, Chenopodium (Chenopodium [6]; 0.6 Kg/hectare): 4-5 | kind of herbicidal action (test plants [5]): pronouncedly selective-herbicidal action in wheat and carrots | degree of damage, Echinochloa (Echinochloa [7]; 5 kg/hectare): 4-5

CSc1nnc(-c2ccccc2)c(=O)n1N=Cc1ccccn1 [Compound 28, 3-methylthio-4-(pyrid-2'-yl-methylidene-amino)-6-phenyl-1,2,4-triazine-5-one]
kind of herbicidal action (test plants [5]): pronouncedly selective-herbicidal action in snap beans and wheat

CCCCNc1nnc(-c2ccccc2)c(=O)n1N [Compound 100a, 3-n-butylamino-4-amino-6-phenyl-1,2,4-triazine-5-one]
degree of damage, Wheat (Wheat [4]; 10 Kg/hectare): 2-3 | degree of damage, Cotton (Cotton [8]; 10 Kg/hectare): 2-3 | degree of damage, Echinochloa (Echinochloa [9]; 10 Kg/hectare): 2-3

Nn1c(NCc2ccccc2)nnc(-c2ccccc2)c1=O [Compound 102a, 3-benzylamino-4-amino-6-phenyl-1,2,4-triazine-5-one]
degree of damage, Cotton (Cotton [8]; 10 Kg/hectare): 2-3

CSc1nnc(C2CCCCO2)c(=O)n1N (stereo not drawn) [Compound 163, 3-methylthio-4-amino-6-(tetrahydropyran-2'-yl)-1,2,4-triazine-5-one]
degree of damage, Wheat (Wheat [4]; 0.6 Kg/hectare): 3-4 | degree of damage, Wheat (Wheat [4]; 1.2 Kg/hectare): 4-5 | degree of damage, Chenopodium (Chenopodium [6]; 0.6 Kg/hectare): 4-5 | degree of damage, Echinochloa (Echinochloa [9]; 2.4 Kg/hectare): 4-5

C=CCNc1nnc(C(C)C)c(=O)n1N [Compound 179, 3-(α-allylamino)-4-amino-6-isopropyl-1,2,4-triazine-5-one]
degree of damage, Chenopodium (Chenopodium [6]; 0.6 Kg/hectare): 4-5 | degree of damage, Stellaria (Stellaria; 1.2 Kg/hectare): 4-5

CSc1nnc(C(C)C)c(=O)n1NC(O)C(Cl)(Cl)Cl (stereo not drawn) [Compound 191, 3-methylthio-4-(β-trichloro-α-hydroxy-ethyl)-amino-6-isopropyl-1,2,4-triazine-5-one]
degree of damage, Sinapis (Sinapis [10]): 4-5

CSc1nnc(C2CCCCC2)c(=O)n1NC(O)C(Cl)(Cl)Cl (stereo not drawn) [Compound 193, 3-methylthio-4-(β-trichloro-α-hydroxy-ethyl)-amino-6-cyclohexyl-1,2,4-triazine-5-one]
degree of damage, Wheat (Wheat [4]; 2.4 Kg/hectare): 4-5 | degree of damage, Oats (Oats [11]; 1.2 Kg/hectare): 4-5 | degree of damage, Wheat (Wheat [2]; 5 kg/hectare): 4-5 | degree of damage, Chenopodium (Chenopodium [12]; 2.5 kg/hectare): 4-5 | degree of damage, Oats (Oats [3]; 2.5 kg/hectare): 4-5

CSc1nnc(C(C)C)c(=O)n1N=C(C)C [Compound 194, 3-methylthio-4-(prop-2'-ylidene-amino)-6-isopropyl-1,2,4-triazine-5-one]
degree of damage, Wheat (Wheat [4]; 1.2 Kg/hectare): 4-5 | degree of damage, Wheat (Wheat [4]; 2.4 Kg/hectare): 4-5 | degree of damage, Cotton (Cotton [8]; 0.6 Kg/hectare): 4-5 | degree of damage, Wheat (Wheat [2]; 1.25 kg/hectare): 4-5 | degree of damage, Cotton (Cotton [13]; 1.25 kg/hectare): 4-5

COc1ccc(C=Nn2c(SC)nnc(C(C)C)c2=O)cc1 [Compound 207, 3-methylthio-4-(4'-methoxy-benzylidene-amino)-6-isopropyl-1,2,4-triazine-5-one]
degree of damage, Wheat (Wheat [4]; 1.2 Kg/hectare): 3-4 | degree of damage, Wheat (Wheat [4]; 2.4 Kg/hectare): 3-4 | degree of damage, Oats (Oats [11]; 2.4 Kg/hectare): 4-5 | degree of damage, Cotton (Cotton [8]; 0.6 Kg/hectare): 4-5 | degree of damage, Wheat (Wheat [2]; 5 kg/hectare): 4-5 | degree of damage, Oats (Oats [3]; 5 kg/hectare): 4-5 | degree of damage, Cotton (Cotton [13]; 5 kg/hectare): 4-5

CSc1nnc(C(C)C)c(=O)n1N=Cc1cccc([N+](=O)[O-])c1 [Compound 209, 3-methylthio-4-(3'-nitro-benzylidene-amino)-6-isopropyl-1,2,4-triazine-5-one]
degree of damage, Oats (Oats [11]; 2.4 Kg/hectare): 4-5 | degree of damage, Chenopodium (Chenopodium [12]; 1.25 kg/hectare): 4-5 | degree of damage, Chenopodium (Chenopodium [12]; 2.5 kg/hectare): 4-5 | degree of damage, Oats (Oats [3]; 2.5 kg/hectare): 4-5 | degree of damage, Oats (Oats [3]; 5 kg/hectare): 4-5 | degree of damage, Cotton (Cotton [13]; 1.25 kg/hectare): 4-5 | degree of damage, Cotton (Cotton [13]; 2.5 kg/hectare): 4-5 | degree of damage, Cotton (Cotton [13]; 5 kg/hectare): 4-5

CSc1nnc(C(C)C)c(=O)n1N=CC(C)C [Compound 214, 3-methylthio-4-(isobutylidene-amino)-6-isopropyl-1,2,4-triazine-5-one]
degree of damage, Oats (Oats [11]; 0.6 Kg/hectare): 4-5 | degree of damage, Cotton (Cotton [8]; 0.6 Kg/hectare): 4-5 | degree of damage, Cotton (Cotton [8]; 1.2 Kg/hectare): 4-5 | degree of damage, Wheat (Wheat [2]; 2.5 kg/hectare): 4-5

CSc1nnc(C(C)(C)C)c(=O)n1N=Cc1ccco1 [Compound 222, 3-methylthio-4-(furfur-2'-ylidene-amino)-6-tert.-butyl-1,2,4-triazine-5-one]
degree of damage, Wheat (Wheat [4]; 2.4 Kg/hectare): 4-5 | degree of damage, Wheat (Wheat [2]; 5 kg/hectare): 4-5 | usefulness as herbicide (plants and weeds): similarly useful | degree of damage, Stellaria (Stellaria; 0.6 Kg/hectare): 4-5 | degree of damage, Oats (Oats [3]; 1.25 kg/hectare): 4-5 | degree of damage, Sinapis (Sinapis [14]; 1.25 kg/hectare): 4-5 | degree of damage, Cotton (Cotton [13]; 1.25 kg/hectare): 4-5

CSc1nnc(C(C)C)c(=O)n1N=C1CCCC1 [Compound 223, 3-methylthio-4-(cyclopentylidene-amino)-6-isopropyl-1,2,4-triazine-5-one]
degree of damage, Cotton (Cotton [8]; 1.2 Kg/hectare): 4-5 | degree of damage, Wheat (Wheat [2]; 2.5 kg/hectare): 4-5 | degree of damage, Wheat (Wheat [2]; 5 kg/hectare): 4-5 | degree of damage, Chenopodium (Chenopodium [6]; 1.2 Kg/hectare): 4-5 | usefulness as herbicide (plants and weeds): similarly useful | degree of damage, Echinochloa (Echinochloa [9]; 1.2 Kg/hectare): 4-5 | degree of damage, Oats (Oats [3]; 1.25 kg/hectare): 4-5 | degree of damage, Sinapis (Sinapis [14]; 1.25 kg/hectare): 4-5 | degree of damage, Cotton (Cotton [13]; 2.5 kg/hectare): 4-5 | degree of damage, Cotton (Cotton [13]; 5 kg/hectare): 4-5

CSc1nnc(C2CCCCC2)c(=O)n1N=Cc1ccco1 [Compound 226, 3-methylthio-4-(furfur-2'-ylidene-amino)-6-cyclohexyl-1,2,4-triazine-5-one]
degree of damage, Oats (Oats [11]; 2.4 Kg/hectare): 4-5 | degree of damage, Cotton (Cotton [8]; 2.4 Kg/hectare): 4-5 | degree of damage, Oats (Oats [3]; 5 kg/hectare): 4-5 | degree of damage, Echinochloa (Echinochloa [7]; 2.5 kg/hectare): 4-5 | degree of damage, Cotton (Cotton [13]; 5 kg/hectare): 3-4

CSc1nnc(C2CCCCC2)c(=O)n1N=C1CCCCC1 [Compound 227, 3-methylthio-4-(cyclohexylidene-amino)-6-cyclohexyl-1,2,4-triazine-5-one]
degree of damage, Wheat (Wheat [4]; 2.4 Kg/hectare): 4-5 | degree of damage, Wheat (Wheat [2]; 2.5 kg/hectare): 4-5 | degree of damage, Wheat (Wheat [2]; 5 kg/hectare): 4-5 | degree of damage, Chenopodium (Chenopodium [6]; 2.4 Kg/hectare): 4-5 | degree of damage, Stellaria (Stellaria; 2.4 Kg/hectare): 4-5 | degree of damage, Sinapis (Sinapis [14]; 1.25 kg/hectare): 4-5 | degree of damage, Echinochloa (Echinochloa [7]; 1.25 kg/hectare): 4-5

CNc1nnc(C(C)(C)C)c(=O)n1N=Cc1ccccc1 [Compound 230, 3-methylamino-4-(benzylidene-amino)-6-tert.-butyl-1,2,4-triazine-5-one]
degree of damage, Oats (Oats [11]; 2.4 Kg/hectare): 4-5 | degree of damage, Wheat (Wheat [2]; 5 kg/hectare): 4-5 | degree of damage, Chenopodium (Chenopodium [12]; 2.5 kg/hectare): 4-5 | degree of damage, Stellaria (Stellaria; 0.6 Kg/hectare): 4-5 | degree of damage, Echinochloa (Echinochloa [9]; 1.2 Kg/hectare): 4-5 | degree of damage, Echinochloa (Echinochloa [9]; 2.4 Kg/hectare): 4-5 | degree of damage, Oats (Oats [3]; 5 kg/hectare): 4-5 | degree of damage, Sinapis (Sinapis [14]; 2.5 kg/hectare): 4-5 | degree of damage, Echinochloa (Echinochloa [7]; 2.5 kg/hectare): 4-5 | degree of damage, Echinochloa (Echinochloa [7]; 5 kg/hectare): 4-5 | degree of damage, Cotton (Cotton [13]; 5 kg/hectare): 4-5

CNc1nnc(C(C)(C)C)c(=O)n1N=Cc1ccc(Cl)cc1 [Compound 233, 3-methylamino-4-(4'-chloro-benzylidene-amino)-6-tert.-butyl-1,2,4-triazine-5-one]
degree of damage, Wheat (Wheat [4]; 0.6 Kg/hectare): 4-5 | degree of damage, Wheat (Wheat [4]; 1.2 Kg/hectare): 4-5 | degree of damage, Oats (Oats [11]; 1.2 Kg/hectare): 4-5 | degree of damage, Oats (Oats [11]; 2.4 Kg/hectare): 4-5 | degree of damage, Cotton (Cotton [8]; 2.4 Kg/hectare): 4-5 | degree of damage, Echinochloa (Echinochloa [7]; 5 kg/hectare): 4-5
